# In patent publication US20230114728A1 (Venatorx Pharmaceuticals, Inc., priority 2019, published 2023):
# Like-named read-outs stand apart in the source and are kept apart here.
# Legend:
# Assay in all cases: Broth microdilution MIC in CAMHB
# Format in all cases: cell-based
# A. baumannii ATCC 19606 = settings: Acinetobacter baumannii
# Method in brief: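 CLSI broth microdilution in CAMHB: 2-fold compound dilutions inoculated at 2-8×10^5 CFU/mL from 3-5 h log-phase cultures. Incubated at 37 °C for 16-20 h (Enterobacteriaceae, Pseudomonas); MIC read visually as lowest concentration without growth. Strains include hyper-permeable and efflux-deficient mutants.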
# E. coli 901C = settings: Escherichia coli, read-out: Minimum Inhibitory Concentration, E. coli 901C
# Method in brief: (§1)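 Per CLSI broth microdilution, colonies were grown 3-5 h at 37° C in cation-adjusted Mueller Hinton broth, then diluted to a starting inoculum of 2-8×10^5 CFU/mL against 2-fold serial compound dilutions. Plates were incubated 16-20 h at 37° C, and MIC was read visually as the lowest concentration with no growth.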
# E. coli AG100A = settings: Escherichia coli, read-out: Minimum Inhibitory Concentration, E. coli AG100A
# Method in brief: as §1
# E. coli AG100 = settings: Escherichia coli
# Method in brief: as §1
# E. coli ATCC 25922 = settings: Escherichia coli
# Method in brief: as §1
# E. coli D22 = settings: Escherichia coli
# Method in brief: as §1
# [1] = system: K. pneumoniae 848844 producing SHV-11 and KPC-2; settings: Klebsiella pneumoniae, read-out: Minimum Inhibitory Concentration, K. pneumoniae 848844
# Method in brief: as §1
# [2] = system: K. pneumoniae SI-117 producing VIM-1; settings: Klebsiella pneumoniae, read-out: Minimum Inhibitory Concentration, K. pneumoniae SI-117
# Method in brief: as §1
# [3] = system: K. pneumoniae UMM producing SHV-5 and KPC-2; settings: Klebsiella pneumoniae, read-out: Minimum Inhibitory Concentration, K. pneumoniae UMM
# Method in brief: as §1
# [4] = system: P. aeruginosa (ΔmexAB-oprM); settings: Pseudomonas aeruginosa, read-out: Minimum Inhibitory Concentration, P. aeruginosa ΔmexAB-OprM
# Method in brief: as §1
# P. aeruginosa ATCC 27853 = settings: Pseudomonas aeruginosa
# Method in brief: as §1
# P. aeruginosa ATCC 35151 = settings: Pseudomonas aeruginosa
# Method in brief: as §1
# [5] = ATCC19606, MHB, read-out: Minimum Inhibitory Concentration, A. baumannii ATCC 19606
# [6] = E. coli 901C (hyper-permeable), MHB
# [7] = E. coli AG100 (wild-type parent), MHB, read-out: Minimum Inhibitory Concentration, E. coli AG100
# [8] = ATCC25922, E. coli ATCC 25922, MHB, read-out: Minimum Inhibitory Concentration, E. coli 25922
# [9] = E. coli D22 (hyper-permeable), MHB, read-out: Minimum Inhibitory Concentration, E. coli D22
# [10] = ATCC27853, MHB, read-out: Minimum Inhibitory Concentration, P. aeruginosa ATCC 27853
# [11] = ATCC35151, MHB, hyper-permeable strain, read-out: Minimum Inhibitory Concentration, P. aeruginosa ATCC 35151
SMILES,MIC (A. baumannii ATCC 19606; [5]) [mg/L],MIC (E. coli 901C; [6]) [mg/L],MIC (E. coli AG100A) [mg/L],MIC (E. coli AG100; [7]) [mg/L],MIC (E. coli ATCC 25922; [8]) [mg/L],MIC (E. coli D22; [9]) [mg/L],MIC [1] [mg/L],MIC [2] [mg/L],MIC [3] [mg/L],MIC [4] [mg/L],MIC (P. aeruginosa ATCC 27853; [10]) [mg/L],MIC (P. aeruginosa ATCC 35151; [11]) [mg/L],"MIC (A. baumannii ATCC 19606; ATCC19606, read-out: Minimum Inhibitory Concentration, A. baumannii ATCC 19606) [mg/L]",MIC (E. coli 901C; 901C) [mg/L],"MIC (E. coli AG100; AG100, read-out: Minimum Inhibitory Concentration, E. coli AG100) [mg/L]","MIC (E. coli ATCC 25922; ATCC25922, read-out: Minimum Inhibitory Concentration, E. coli 25922) [mg/L]","MIC (E. coli D22; D22, read-out: Minimum Inhibitory Concentration, E. coli D22) [mg/L]","MIC (P. aeruginosa ATCC 27853; ATCC27853, read-out: Minimum Inhibitory Concentration, P. aeruginosa ATCC 27853) [mg/L]","MIC (P. aeruginosa ATCC 35151; ATCC35151, read-out: Minimum Inhibitory Concentration, P. aeruginosa ATCC 35151) [mg/L]"
"CCN1CCN(C(=O)N[C@H](C(=O)N[C@H]2Cc3cccc(C(=O)O)c3OB2O)c2nc(Cl)c(C(=O)O)cc2F)C(=O)C1=O [Example 19, 6-((S)-2-(((R)-8-carboxy-2-hydroxy-3,4-dihydro-2H-benzo[e][1,2]oxaborinin-3-yl)amino)-1-(4-ethyl-2,3-dioxopiperazine-1-carboxamido)-2-oxoethyl)-2-chloro-5-fluoronicotinic acid]",> 128,0.5 to 1,32 to 64,> 128,> 128,2 to 4,> 128,> 128,> 128,32 to 64,> 128,0.5 to 1,–,–,–,–,–,–,–
"CCN1CCN(C(=O)NC(C(=O)N[C@H]2Cc3cccc(C(=O)O)c3OB2O)c2ncc(C(=O)O)cc2F)C(=O)C1=O (stereo partly drawn) [Example 20, 6-(2-(((R)-8-carboxy-2-hydroxy-3,4-dihydro-2H-benzo[e][1,2]oxaborinin-3-yl)amino)-1-(4-ethyl-2,3-dioxopiperazine-1-carboxamido)-2-oxoethyl)-5-fluoronicotinic acid]",> 128,< 0.25,8 to 16,32 to 64,> 128,2 to 4,> 128,> 128,32 to 64,8 to 16,> 128,0.5 to 1,–,–,–,–,–,–,–
"CCN1CCN(C(=O)NC(C(=O)N[C@H]2Cc3cccc(C(=O)O)c3OB2O)c2ccc(O)c(N(S(C)(=O)=O)S(C)(=O)=O)c2)C(=O)C1=O (stereo partly drawn) [Example 21, (3R)-3-(2-(4-ethyl-2,3-dioxopiperazine-1-carboxamido)-2-(4-hydroxy-3-(N-(methylsulfonyl)methylsulfonamido)phenyl)acetamido)-2-hydroxy-3,4-dihydro-2H-benzo[e][1,2]oxaborinine-8-carboxylic acid]",> 128,< 0.25,2 to 4,32 to 64,> 128,2 to 4,> 128,> 128,32 to 64,32 to 64,> 128,2 to 4,–,–,–,–,–,–,–
"CCN1CCN(C(=O)NC(C(=O)N[C@H]2Cc3cccc(C(=O)O)c3OB2O)c2ccc(O)c(NS(C)(=O)=O)c2)C(=O)C1=O (stereo partly drawn) [Example 22, (3R)-3-(2-(4-ethyl-2,3-dioxopiperazine-1-carboxamido)-2-(4-hydroxy-3-(methylsulfonamido)phenyl)acetamido)-2-hydroxy-3,4-dihydro-2H-benzo[e][1,2]oxaborinine-8-carboxylic acid]",> 128,< 0.25,2 to 4,32 to 64,32 to 64,2 to 4,> 128,32 to 64,32 to 64,8 to 16,> 128,0.5 to 1,–,–,–,–,–,–,–
"NCCN1CCN(C(=O)NC(C(=O)N[C@H]2Cc3ccc(F)c(C(=O)O)c3OB2O)c2nc(N)sc2F)C(=O)C1=O (stereo partly drawn) [Example 24, (3R)-3-(2-(2-amino-5-fluorothiazol-4-yl)-2-(4-(2-aminoethyl)-2,3-dioxopiperazine-1-carboxamido)acetamido)-7-fluoro-2-hydroxy-3,4-dihydro-2H-benzo[e][1,2]oxaborinine-8-carboxylic acid]",> 128,2 to 4,8 to 16,32 to 64,32 to 64,8 to 16,> 128,32 to 64,32 to 64,32 to 64,> 128,2 to 4,–,–,–,–,–,–,–
"CCN1CCN(C(=O)NC(C(=O)N[C@H]2Cc3cccc(C(=O)O)c3OB2O)c2ccc(O)c(N)c2)C(=O)C1=O (stereo partly drawn) [Example 29, (3R)-3-(2-(3-amino-4-hydroxyphenyl)-2-(4-ethyl-2,3-dioxopiperazine-1-carboxamido)acetamido)-2-hydroxy-3,4-dihydro-2H-benzo[e][1,2]oxaborinine-8-carboxylic acid]",> 128,0.5 to 1,2 to 4,32 to 64,32 to 64,2 to 4,> 128,32 to 64,32 to 64,8 to 16,> 128,0.5 to 1,–,–,–,–,–,–,–
"CCN1CCN(C(=O)NC(C(=O)N[C@H]2Cc3cccc(C(=O)O)c3OB2O)c2ccc(O)c(NS(N)(=O)=O)c2)C(=O)C1=O (stereo partly drawn) [Example 30, (3R)-3-(2-(4-ethyl-2,3-dioxopiperazine-1-carboxamido)-2-(4-hydroxy-3-(sulfamoylamino)phenyl)acetamido)-2-hydroxy-3,4-dihydro-2H-benzo[e][1,2]oxaborinine-8-carboxylic acid]",> 128,0.5 to 1,2 to 4,32 to 64,8 to 16,2 to 4,> 128,32 to 64,32 to 64,8 to 16,> 128,0.5 to 1,–,–,–,–,–,–,–
"CCN1CCN(C(=O)NC(C(=O)N[C@H]2Cc3cccc(C(=O)O)c3OB2O)c2ccc(C(=O)O)c(F)c2)C(=O)C1=O (stereo partly drawn) [Example 31, (3R)-3-(2-(4-carboxy-3-fluorophenyl)-2-(4-ethyl-2,3-dioxopiperazine-1-carboxamido)acetamido)-2-hydroxy-3,4-dihydro-2H-benzo[e][1,2]oxaborinine-8-carboxylic acid]",> 128,< 0.25,2 to 4,32 to 64,32 to 64,2 to 4,> 128,> 128,32 to 64,8 to 16,32 to 64,< 0.25,–,–,–,–,–,–,–
"N[C@@H](C(=O)N[C@H]1Cc2ccc(F)c(C(=O)O)c2OB1O)c1ccc(OS(=O)(=O)F)cc1 [Example 32, (R)-3-((R)-2-amino-2-(4-((fluorosulfonyl)oxy)phenyl)acetamido)-7-fluoro-2-hydroxy-3,4-dihydro-2H-benzo[e][1,2]oxaborinine-8-carboxylic acid]",–,–,> 128,–,–,–,> 128,> 128,> 128,> 128,–,–,> 128,> 128,> 128,> 128,> 128,> 128,> 128
